Common to all, as to type: cell-based, mice
For series [1], the system named is B-16 melanoma (ATCC CRL 6323) cell line. In words: Melanin synthesis inhibition (%) by arctiin, arctigenin and the mixture thereof. Conditions: n = 3, 5 days. How it is done:
The subcultured melanoma cell line was cultured in 75[…] T-flask for 24 hours, and was treated with 0.05% Trypsin containing 0.02% EDTA. Then, cells were separated, were inoculated in 75[…] T-flask, and were further cultured for 6 hours. Herein, the number of cells was 1×10^7 cells/flask. Then, a melanocyte-stimulating hormone was diluted in a DMEM medium to a final concentration 100[…]. Next, each of arctiin, arctigenin, matairesinol, oleanolic acid, betulinic acid, rutin, and ursolic acid was diluted in the DMEM medium to a final concentration of 10-1000 □/□ to carry out treatment of melanoma cells, and then, the cells were further cultured at 37° C. for 5 days. […] An experiment of melanin synthesis inhibition was carried out in the same manner as described in EXPERIMENTAL EXAMPLE 1, except the following processes. […] Next, the medium was obtained to measure absorbance at 475 nm, and melanin synthesis was compared. A melanin synthesis inhibition (%) was calculated according to Mathematical Formula 1, with a control value of cell cultures including only a melanocyte stimulating hormone. […] [formula]

Series [2] shares this test system. In words: Melanin synthesis inhibition by forsythia suspensa active substances (IC50). The note with it: for Melanin synthesis inhibition (in words): compared to other substances of Forsythia suspensa; for IC50: Mus musculus, B16, 120 h, read-out: Melanin synthesis inhibition IC50. As for the experimental part: (§1) α-MSH, for an experiment for melanin synthesis inhibition, was dissolved in 10% DMSO (Dimethyl sulfoxide), and was used as 1 mM solution. B-16 melanoma (ATCC CRL 6323) cell line (derived from mice) was inoculated into a DMEM medium including 4.5 g/L of glucose, 10% serum, and 1% antibiotics, and was subcultured in 75[…] T-flask under 5% CO2 and at 37° C. The subcultured melanoma cell line was cultured in 75[…] T-flask for 24 hours, and was treated with 0.05% Trypsin containing 0.02% EDTA. Then, cells were separated, were inoculated in 75[…] T-flask, and were further cultured for 6 hours. Herein, the number of cells was 1×10^7 cells/flask. Then, a melanocyte-stimulating hormone was diluted in a DMEM medium to a final concentration 100[…]. Next, each of arctiin, arctigenin, matairesinol, oleanolic acid, betulinic acid, rutin, and ursolic acid was diluted in the DMEM medium to a final concentration of 10-1000 □/□ to carry out treatment of melanoma cells, and then, the cells were further cultured at 37° C. for 5 days. Next, the medium was obtained to measure absorbance at 475 nm, and through comparison of melanin synthesis, IC50 (□/□), that is, the density for inhibiting melanin synthesis by 50%, was calculated.

The subject of series [3] is tyrosinase. In words: Expression inhibition II of a melanin synthesis enzyme from melanocyte (tyrosinase band in gel). Conditions: 100 □/□ substance with melanocyte stimulating hormone 100; 3 days culture; controls 123 and 211. How it is done:
The subcultured melanoma cell line was cultured in 75[…] T-flask for 24 hours, and was treated with 0.05% Trypsin containing 0.02% EDTA. Then, cells were separated, were inoculated in 75[…] T-flask, and were further cultured for 6 hours. Herein, the number of cells was 1×10^7 cells/flask. Then, a melanocyte-stimulating hormone was diluted in a DMEM medium to a final concentration 100[…]. Next, each of arctiin, arctigenin, matairesinol, oleanolic acid, betulinic acid, rutin, and ursolic acid was diluted in the DMEM medium to a final concentration of 10-1000 □/□ to carry out treatment of melanoma cells, and then, the cells were further cultured at 37° C. for 5 days. […] An expression inhibiting effect of a melanin synthesis enzyme from melanocyte, which can be achieved by arctiin, arctigenin, or the mixture thereof, was determined. An experiment was carried out in the same manner as described in Experimental Example 1 except that each of arctiin, arctigenin, a 1:3 mixture of arctiin and arctigenin, and a 3:1 mixture of arctiin and arctigenin prepared by Preparation Examples 1 and 2 was added and culture was further carried out for 3 days to obtain cells. […] And then, the production of tyrosinase was measured in electrophoresis gel.

In series [4] the test system is NIH/3T3 (ATCC CRL 1658) cell line. Description: Cytotoxicity on fibroblast cell (MTT). The note with it: for Cell viability (%): 12 hours, MTT. How it is done: On a fibroblast cell, toxicity of arctiin, arctigenin, a 1:3 mixture of arctiin and arctigenin, and a 3:1 mixture of arctiin and arctigenin prepared by Preparation Examples 1 and 2 was measured, respectively. NIH/3T3 (ATCC CRL 1658) cell line (derived from mice) as a fibroblast cell, which was purchased, was inoculated into a DMEM medium including 4.5 g/L of glucose, 10% serum, and 1% antibiotics, and was subcultured in 75[…] T-flask at 37° C. The subcultured cell line was cultured under 5% CO2 for 24 hours, and then it was treated with 0.05% Trypsin containing 0.02% EDTA. Then, cells were separated, were inoculated into 96-well-flask (1×10^4 cells/well) and stabilized through culture for 6 hours. To the cells, each of arctiin, arctigenin, a 1:3 mixture of arctiin and arctigenin, and a 3:1 mixture of arctiin and arctigenin was added as noted in Table 5, and culture was further carried out for 12 hours. After the culture, 10[…] of MTT (3-(4,5-dimethylthiazol-2-yl) 2,5-diphenyl tetrazolin bromide) solution (5[…]/□) was added in each well, and culture was carried out for 4 hours. Then, 100[…] of DMSO (Dimethyl sulfoxide) solution was added, and absorbance was measured at O.D. 570 nm to calculate the cell viability. […] Herein, the cell viability of 100% was based on the absorbance in the case of no additional substance.

Series [5] has as its system tyrosinase. In words: Expression inhibition I of a melanin synthesis enzyme in melanocyte (tyrosinase band in gel). Conditions: for Intensity of tyrosinase band: 100 □/□, 3 days culture, lower intensity = higher inhibition of tyrosinase biosynthesis, controls 123 (Control Exp 1) and 211 (Control Exp 2); for Inhibiting effect on biosynthesis of tyrosinase (in words): compared to Control Example 2 containing only a melanocyte stimulating hormone. How it is done:
as §1
An experiment was carried out in the same manner as described in Experimental Example 1 except that each of arctiin, arctigenin, matairesinol, oleanolic acid, betulinic acid, rutin, and ursolic acid was added, and culture was further carried out for 3 days to obtain cells. Also, in order to compare the expression inhibition of a melanin synthesis enzyme, experiments on Control Example 1 containing no forsythia suspensa active substance and Control Example 2 containing a melanocyte stimulating hormone were carried out. Obtained cells were washed with sodium phosphate buffer two times, were treated with 0.1% triton X-100, and were reacted by a sonicator for 30 seconds. From the reaction solution, cell precipitate and supernatant were separated by using a high-speed centrifuge at 12,000 rpm for 30 minutes at 4° C. From the separated supernatant, protein was separated by using electrophoresis, and was reacted in a reaction solution containing 0.2% DOPA solution for about 8 hours. Then, the production of tyrosinase in gel was measured.

[6] abbreviates: α-MSH-stimulated B-16 melanoma, 5 days, medium absorbance at 475 nm.

Where two headings read alike, the source gives them in different places.

With `COc1ccc(CC2COC(=O)C2Cc2ccc(O[C@@H]3O[C@H](CO)[C@@H](O)[C@H](O)[C@H]3O)c(OC)c2)cc1OC` (stereo partly shown) [Arctiin, 4-[(3,4-Dimethoxyphenyl)methyl]dihydro-3-[(4-Glucose-3-metoxyphenyl)methyl]-2(3H)-furanone], the “Melanin synthesis inhibition (%)” value was determined as 67.3% in series [1] (final concentration 60 □/□), 78.5% in series [1] (final concentration 100 □/□), 80.3% in series [1] (final concentration 140 □/□) and 84.2% in series [1] (final concentration 180 □/□). Further, the “Melanin synthesis inhibition (in words)” value in series [2] is given as “most effective”. Moreover, the “Strength of tyrosinase band” value with tyrosinase [3] came to 155. In series [4], the “Cell viabilities (range over tested concentrations)” value is recorded as 94-100%. The “Toxicity determination on cells” value in series [4] is reported as “non-toxic”. Moreover, the “Intensity of tyrosinase band” value with tyrosinase [5] worked out at 155. Moreover, the “Inhibiting effect on biosynthesis of tyrosinase (in words)” value in the series with tyrosinase [5] is listed as “significantly high inhibiting effects”.

Consider `CC1(C)CC[C@]2(C(=O)O)CC[C@]3(C)C(=CC[C@@H]4[C@@]5(C)CC[C@H](O)C(C)(C)[C@@H]5CC[C@]43C)[C@@H]2C1` [Oleanolic acid], for which, in series [2] (setting [6]), the IC50 (in general, the concentration at which inhibition is half-maximal) was less than 1000 µg/mL. The “Intensity of tyrosinase band” value in the series on tyrosinase [5] stood at 200.

Consider `COc1cc(CC2C(=O)OCC2Cc2ccc(OC)c(OC)c2)ccc1O` (stereo not shown) [Arctigenin, 4-[(3,4-Dimethoxyphenyl)methyl]dihydro-3-[(4-hydroxy-3-metoxyphenyl)methyl]-2(3H)-furanone], for which the “Melanin synthesis inhibition (%)” value in series [1] (final concentration 60 □/□) stood at 66.8%; in series [1] (final concentration 100 □/□) it was 79.6%; in series [1] (final concentration 140 □/□) it was 81.3%; in series [1] (final concentration 180 □/□), 84.3%. Further, the “Melanin synthesis inhibition (in words)” value in series [2] is given as “most effective”. The “Strength of tyrosinase band” value in the series on tyrosinase [3] is 135. In addition, the “Toxicity determination on cells” value in series [4] (criteria of Table 6) is “non-toxic”. Besides, the “Cell viability (%)” value in series [4] (final concentration 20 □/□) worked out at 101.2%; in series [4] (final concentration 60 □/□), 101.0%; in series [4] (final concentration 100 □/□), 99.8%; in series [4] (final concentration 140 □/□), 99.6%; in series [4] (final concentration 180 □/□), 99.7%. Further, the “Intensity of tyrosinase band” value in the series on tyrosinase [5] was found to be 135. In addition, the “Inhibiting effect on biosynthesis of tyrosinase (in words)” value in the series with tyrosinase [5] is “significantly high inhibiting effects”.

As to `C=C(C)[C@@H]1CC[C@]2(C(=O)O)CC[C@]3(C)[C@H](CC[C@@H]4[C@@]5(C)CC[C@H](O)C(C)(C)[C@@H]5CC[C@]43C)[C@@H]12` [Betulinic acid], in series [2] (setting [6]), the half-maximal inhibitory concentration (IC50) was less than 500 µg/mL. Further, the “Intensity of tyrosinase band” value in the series with tyrosinase [5] worked out at 170.

In the case of `C[C@@H]1O[C@@H](OC[C@H]2O[C@@H](Oc3c(-c4ccc(O)c(O)c4)oc4cc(O)cc(O)c4c3=O)[C@H](O)[C@@H](O)[C@@H]2O)[C@H](O)[C@H](O)[C@H]1O` [Rutin], in series [2], the IC50 was less than 500 µg/mL. Further, in the series on tyrosinase [5], the “Intensity of tyrosinase band” value is listed as 150.

For `C[C@H]1[C@H](C)CC[C@]2(C(=O)O)CC[C@]3(C)C(=CC[C@@H]4[C@@]5(C)CC[C@H](O)C(C)(C)[C@@H]5CC[C@]43C)[C@H]12` [Ursolic acid], the IC50 in series [2] (setting [6]) was less than 500 µg/mL. For the same compound, the “Intensity of tyrosinase band” value in the series on tyrosinase [5] turned out to be 180.

With `COc1cc(C[C@H]2COC(=O)[C@@H]2Cc2ccc(O)c(OC)c2)ccc1O` [Matairesinol], the concentration for half-maximal inhibition (IC50) in series [2] (setting [6]) is less than 200 µg/mL. In addition, the “Intensity of tyrosinase band” value with tyrosinase [5] came to 180.

The record behind these values is patent US20100104524A1, “COSMETIC COMPOSITION FOR SKIN WHITENING COMPRISING ARCTIIN, ARCTIGENIN OR THE MIXTURE THEREOF AS ACTIVE” (priority 2007, published 2010).
